Data on 30 compounds can be found in ChEMBL document CHEMBL4033726, “Design of potent dipeptidyl peptidase IV (DPP-4) inhibitors by employing a strategy to form a salt bridge with Lys554” (Bioorg Med Chem Lett, 2017).

The target in one assay is Dipeptidyl peptidase 4 (Homo sapiens, UniProt P27487).
A further assay concerns Rattus norvegicus. Briefly: Ex vivo inhibition of DPP4 in Sprague-Dawley rat plasma at 1 mg/kg, po after 1 to 6 hrs using Gly-Pro-pNA substrate. It counts as functional.
For a further assay, the target named is Dipeptidyl peptidase 8 (Homo sapiens, UniProt Q6V1X1). The assay is described as follows: Inhibition of FLAG-tagged human DPP8 expressed in 293-F cells pre-incubated for 20 mins before Gly-Pro-pNA substrate addition and measured after 90 mins. It is filed as cell-based.

The structures appear in SMILES notation. Where only a bound is given, the exact number is not on record here.

Sequence of Dipeptidyl peptidase 4 (P27487 whole entry): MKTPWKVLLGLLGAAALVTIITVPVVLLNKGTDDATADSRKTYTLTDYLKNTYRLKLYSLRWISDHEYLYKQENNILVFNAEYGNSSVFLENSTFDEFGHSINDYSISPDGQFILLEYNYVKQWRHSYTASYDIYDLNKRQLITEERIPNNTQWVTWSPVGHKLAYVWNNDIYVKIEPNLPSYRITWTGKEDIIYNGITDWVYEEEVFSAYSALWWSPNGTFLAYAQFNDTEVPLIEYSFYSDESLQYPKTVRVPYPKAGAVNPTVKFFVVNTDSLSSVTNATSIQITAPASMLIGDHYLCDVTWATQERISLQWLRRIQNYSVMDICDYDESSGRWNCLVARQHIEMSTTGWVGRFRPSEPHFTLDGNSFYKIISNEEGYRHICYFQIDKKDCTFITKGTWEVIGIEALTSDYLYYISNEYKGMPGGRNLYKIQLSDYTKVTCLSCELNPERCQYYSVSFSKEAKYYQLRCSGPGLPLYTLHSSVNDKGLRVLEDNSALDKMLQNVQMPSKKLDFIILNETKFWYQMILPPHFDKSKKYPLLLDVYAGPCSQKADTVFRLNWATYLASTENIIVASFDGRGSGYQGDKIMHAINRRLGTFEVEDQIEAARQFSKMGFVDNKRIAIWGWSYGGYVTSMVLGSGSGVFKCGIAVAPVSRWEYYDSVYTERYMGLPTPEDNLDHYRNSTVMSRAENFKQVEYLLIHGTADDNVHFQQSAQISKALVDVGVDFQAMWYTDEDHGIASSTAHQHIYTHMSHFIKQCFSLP
Sequence of Dipeptidyl peptidase 8 (Q6V1X1 whole entry): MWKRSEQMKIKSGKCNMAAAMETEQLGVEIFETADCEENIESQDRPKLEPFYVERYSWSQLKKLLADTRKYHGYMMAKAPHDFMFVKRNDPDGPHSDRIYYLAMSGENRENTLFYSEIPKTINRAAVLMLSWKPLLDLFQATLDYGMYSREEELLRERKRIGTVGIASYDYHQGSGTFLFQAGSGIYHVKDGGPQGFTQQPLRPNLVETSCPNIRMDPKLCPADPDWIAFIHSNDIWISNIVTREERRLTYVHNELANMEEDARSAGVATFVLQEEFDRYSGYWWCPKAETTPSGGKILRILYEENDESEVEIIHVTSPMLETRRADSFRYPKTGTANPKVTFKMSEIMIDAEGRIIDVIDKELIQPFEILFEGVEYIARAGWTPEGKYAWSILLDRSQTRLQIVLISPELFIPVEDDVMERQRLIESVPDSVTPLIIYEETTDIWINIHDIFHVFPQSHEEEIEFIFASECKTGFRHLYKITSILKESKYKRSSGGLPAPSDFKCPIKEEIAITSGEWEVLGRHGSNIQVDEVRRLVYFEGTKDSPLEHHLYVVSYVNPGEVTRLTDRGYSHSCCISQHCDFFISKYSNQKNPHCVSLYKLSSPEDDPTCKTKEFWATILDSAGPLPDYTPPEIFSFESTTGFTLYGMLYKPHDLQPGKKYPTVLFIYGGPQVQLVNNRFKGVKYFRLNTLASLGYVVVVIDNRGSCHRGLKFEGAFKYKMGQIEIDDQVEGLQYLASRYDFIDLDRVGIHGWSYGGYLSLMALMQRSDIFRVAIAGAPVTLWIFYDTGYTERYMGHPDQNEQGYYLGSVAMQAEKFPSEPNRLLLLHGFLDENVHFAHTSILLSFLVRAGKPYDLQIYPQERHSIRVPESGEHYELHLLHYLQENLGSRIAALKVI
Description for Dipeptidyl peptidase 4: Inhibition of human DPP4 purified from Caco2 cells pre-incubated for 15 mins before Gly-Pro-pNA substrate addition and measured after 60 mins

The IC50 is the midpoint of a concentration-inhibition curve. Read a high IC50 as weaker potency in that assay. The compound `Cc1ccc(-c2c(CN)c(CC(C)C)nc(C)c2C(=O)OC[C@H]2CC[C@H](C(=O)O)CC2)cc1` yielded an IC50 on Dipeptidyl peptidase 4 of 80 nM.

On Dipeptidyl peptidase 4, `Cc1ccc(-c2c(COCc3ccc(C(=O)O)cc3)c(C)nc(CC(C)C)c2CN)cc1` came in with an IC50 of 7.2 nM.

Compound `NCc1c(Cc2ccccc2)nc2ccc(OCC(N)=O)cc2c1-c1ccccc1` displayed an IC50 against Dipeptidyl peptidase 4 of 720 nM.

In general, inhibition in vivo refers to the percentage by which the read-out fell short of the control. Compound `Cc1ccc(-c2c(CN)c(CC(C)C)nc3ccc(-c4nc(C(=O)O)cs4)cc23)cc1` displayed an inhibition in vivo at 1 mg/kg in the assay on Rattus norvegicus above 50%. On Dipeptidyl peptidase 4, this compound yielded an IC50 of 0.38 nM.

For the compound `Cc1ccc(-c2c(-c3nc(C(N)=O)cs3)cnc(CC(C)C)c2CN)cc1`, 2.1 nM corresponded to half-maximal inhibition at Dipeptidyl peptidase 4 (IC50).

Consider `Cc1ccc(-c2c(CN)c(CC(C)C)nc(C)c2C(=O)OCCCC(=O)O)cc1`, for which, at Dipeptidyl peptidase 4, 470 nM corresponded to half-maximal inhibition (IC50).

For `Cc1ccc(-c2c(CN)c(CC(C)C)nc3ccc(OCCCC(=O)O)cc23)cc1`, half-maximal inhibition at Dipeptidyl peptidase 4 (IC50) required 17 nM.

At Dipeptidyl peptidase 4, `CC(C)Cc1nc2ccc(Br)cc2c(-c2ccccc2)c1CN` registered an IC50 of 630 nM.

On to `CCCCCc1nc2ccc(OCC(N)=O)cc2c(-c2ccccc2)c1CN`, for which the IC50 on Dipeptidyl peptidase 4 was determined as 540 nM. The IC50 values of the last two compounds are within 1.5-fold of each other.

As to `Cc1ccc(-c2c(CN)c(CC(C)C)nc3ccc(OCCC(=O)O)cc23)cc1`, on Dipeptidyl peptidase 4, it took 29 nM to reach half-maximal inhibition (IC50).

At Dipeptidyl peptidase 4, `Cc1ccc(-c2c(CN)c(CC(C)C)nc3ccc(OCCCCCC(=O)O)cc23)cc1` gave an IC50 of 6.8 nM.

As to `CC(C)Cn1c(CN)c(-c2ccccc2)c2cc(Br)ccc2c1=O`, on Dipeptidyl peptidase 4, the IC50 amounted to 1200 nM.

At Dipeptidyl peptidase 4, `Cc1ccc(-c2c(CN)c(CC(C)C)nc(C)c2C(=O)OCc2ccccc2C(=O)O)cc1` registered an IC50 of 29 nM.

As to `Cc1ccc(-c2c(CN)c(CC(C)C)nc3ccc(OCCCCC(N)=O)cc23)cc1`, at Dipeptidyl peptidase 4, 13 nM corresponded to half-maximal inhibition (IC50). This IC50 lies about 2.2-fold lower than the previous one.

With `Cc1ccc(-c2c(CN)c(CC(C)C)nc3ccc(OCC(=O)O)cc23)cc1`, 140 nM corresponded to half-maximal inhibition on Dipeptidyl peptidase 4 (IC50).

`Cc1ccc(-c2c(CN)c(CC(C)C)nc(C)c2C(=O)OCc2cccc(C(=O)O)c2)cc1` displayed an IC50 at Dipeptidyl peptidase 4 of 87 nM. Against the preceding compound, the IC50 is about 1.6-fold lower.

Compound `CCCCc1nc2ccc(OCC(N)=O)cc2c(-c2ccccc2)c1CN` came in with an IC50 at Dipeptidyl peptidase 4 of 620 nM.

Compound `Cc1ccc(-c2c(CN)c(CC(C)C)nc3ccc(-c4ccc(C(=O)O)o4)cc23)cc1` yielded an IC50 at Dipeptidyl peptidase 4 of 28 nM.

At Dipeptidyl peptidase 4, `CC(C)(C)Cc1nc2ccc(OCC(N)=O)cc2c(-c2ccccc2)c1CN` displayed a concentration for half-maximal inhibition (IC50) of 250 nM.

As to `CC(C)Cn1c(CN)c(-c2ccccc2)c2cc(Br)cnc2c1=O`, on Dipeptidyl peptidase 4, the IC50 is 1200 nM.

With `Cc1ccc(-c2c(CN)n(CC(C)C)c(=O)c3ccc(OCC(N)=O)cc23)cc1`, at Dipeptidyl peptidase 4, the midpoint of inhibition, the IC50, lay at 220 nM.

In turn, `Cc1ccc(-c2c(CCc3nc(C(N)=O)cs3)c(C)nc(CC(C)C)c2CN)cc1` had an IC50 on Dipeptidyl peptidase 4 of 8.5 nM.

On Dipeptidyl peptidase 4, `CC(C)Cc1nc2ccc(C(N)=O)cc2c(-c2ccccc2)c1CN` came in with an IC50 of 170 nM. This IC50 is about 20-fold higher than that of the compound before.

Consider `CC(=O)c1csc(-c2cnc(CC(C)C)c(CN)c2-c2ccc(C)cc2)n1`, for which, at Dipeptidyl peptidase 4, the IC50 worked out at 8.7 nM.

In turn, `Cc1ccc(-c2c(/C=C/c3nc(C(=O)O)cs3)c(C)nc(CC(C)C)c2CN)cc1` yielded an IC50 at Dipeptidyl peptidase 4 of 5.5 nM.

With `Cc1ccc(-c2c(CCc3nc(C(=O)O)cs3)c(C)nc(CC(C)C)c2CN)cc1`, the IC50 on Dipeptidyl peptidase 4 is 2.6 nM.

In the case of `Cc1ccc(-c2c(CN)c(CC(C)C)nc3ccc(OCCCCC(=O)O)cc23)cc1`, the IC50 on Dipeptidyl peptidase 4 was 4.6 nM.

With `Cc1ccc(-c2c(CN)c(CC(C)C)nc(C)c2C(=O)OCc2ccc(C(=O)O)cc2)cc1`, the IC50 against Dipeptidyl peptidase 8 was above 100000 nM; on Dipeptidyl peptidase 4 it was 17 nM.

Consider `CCCc1nc2ccc(OCC(N)=O)cc2c(-c2ccccc2)c1CN`, for which the midpoint of inhibition on Dipeptidyl peptidase 4, the IC50, lay at 510 nM.

Take `CC(C)Cn1c(CN)c(-c2ccccc2)c2cc(C(N)=O)cnc2c1=O`: the IC50 on Dipeptidyl peptidase 4 came out at 470 nM. The IC50 values of the last two compounds are within 1.5-fold of each other.
